For series [1], the system named is CCl4-induced inflammation. Description: CCl4-induced inflammation in mouse liver. Format: in vivo. Conditions: CCl4-treated mice (FIG. 4C, 4D). As for the experimental part: Animal Care: All animal care and experimental procedures were approved by the Institutional Animal Care and Use Committee at the University of Connecticut. Shp^−/− mice were described previously. Hmgb2^−/− mice were obtained from Dr. Stella Tsirka at Stony Brook University. C57BL/6J mice were purchased from Jackson Laboratory. All mice were maintained on a 12-h light/dark cycle with free access to food and water unless otherwise indicated. For CCl4 treatment, CCl4 (Sigma) was dissolved in corn oil and administered to mice at a dose of 850 μl/kg BW by intraperitoneal injection (IP) twice a week for 6 or 10 weeks with or without ICM. Age-matched control mice were treated with a corn oil vehicle. For CCl4+ICM treatment, mice were treated with CCl4 for 2 weeks and then ICM (Department of Pharmaceutical Sciences at UConn) was dissolved in PEG (Sigma) and treated with mice (10 mg/kg) every day for 4 or 8 weeks in combination with CCl4. To induce overexpression of HMGB2 in liver, AAV8-Hmgb2 or a control AAV8-GFP was given to mice by tail vein injection at a dose of 5×10^10 GC. To knockdown HMGB2 in mouse livers, AAV-shHmgb2 or a control AAV-shGFP was delivered to mice at a dose of 2×10^10 GC by tail vein injection. One week later, mice injected with AAVs were treated with CCl4 or CCl4 +ICM as described above and sacrificed. […]

For the next series, the system named is TIC cells. Description: TIC cell migration and invasion assays. It counts as cell-based. Conditions: TIC cells (FIG. 7C, 7D). The protocol: Cell Lines The LX-2 human stellate cell line was maintained in Dulbecco's Modified Eagle's Medium (DMEM) supplemented with 2% fetal bovine serum (FBS), 100 IU/ml penicillin, and 100 μg/ml streptomycin. Human hepatocellular carcinoma (HCC) MHCC97H cells were maintained in DMEM supplemented with 10% FBS, 100 IU/ml penicillin, and 100 μg/ml streptomycin, 1 mM HEPES, 1 mM sodium pyruvate, 2 mM L-glutamine. Tumor-initiating (TIC) cells were obtained from Dr. Hidekazu Tsukamoto at University of Southern California and were maintained in 1:1 DMEM:F12 supplement with 100 U/ml penicillin and 100 μg/ml streptomycin, 2 mM glutamine, 20 ng/ml mouse EGF, 10 nM dexamethasone, 1× embryomax nucleotides. All the cells were maintained at 37° C. humidified atmosphere with 5% CO2. TIC cells were infected with Hmgb2 shRNA lentivirus for 48 hr, and treated with 500 ng/ml puromycin for 2 weeks. The stable cells were used for migration and invasion assay, as well as western blot.
Cell Migration and Invasion: Cell migration and invasion assays were performed as described in the art. Briefly, control TIC cells or TIC cells with a stable knockdown of HMGB2 were infected with AAV8-Null or AAV-8-HMGB2 for 48 hr. The cells were then serum starved for 24 hr and 5×10^4 cells were seeded on transwell inserts with 8 μm pore size (Culterx® 96 well cell migration assay, cat# 3465-095-K). Cells were allowed to migrate for 16 hr. Non-migrating cells were removed from the insert with a cotton swab. The migrated cells were fixed for 10 min (3.7% v/v formaldehyde in PBS), and stained with 0.1% crystal violet for 15 min. Cells were washed with PBS and pictures were taken with Microfire/Qcam CCD Olympus 1×81 microscope. Cells stained with crystal violet were counted and then lysed with 1% SDS for 30 min and the absorbance was measured at 570 nm. Cell invasion assays were performed similarly to migration assays, except that the cells were seeded on pre-coated inserts with BME solution (Cultrex® 96 well BME cell invasion Assay, cat# 3455-096-K). Invaded cells were fixed, stained and the absorbance was measured as in the migration assay.

The values that follow come from patent publication US20180320177A1, “COMPOSITIONS AND METHODS FOR THE TREATMENT OF LIVER FIBROSIS” (UNIVERSITY OF CONNECTICUT, priority 2015, published 2018).

Consider `CC1(C)Oc2cc(O)ccc2C2C1=CCn1c(=O)n(-c3ccccc3)c(=O)n12` (stereo not drawn) [ICM, inflachromene], for which, in series [1], the inflammatory response result is “decrease inflammatory response”. In addition, in the series on TIC cells, the cell invasion entry is on record as “markedly blocks” and the cell migration entry was “markedly blocks”.
Take “shHMGB2: small hairpin RNA against HMGB2 (SEQ ID NO: 8), delivered by AAV or lentivirus (CCGGGCTCAACATTAGCTTCAGTATCTCGAGATACTGAAGCTAATGTTGAGCTTTTTG)”: the inflammatory response result in series [1] is given as “decrease inflammatory response”. Also, in the series with TIC cells, the cell invasion result is given as “decreased” and the cell migration entry was “decreased”.
